This passage reports IC50 results from US11718589B2, “Compositions and methods of modulating short-chain dehydrogenase” (CASE WESTERN RESERVE UNIVERSITY, priority 2017, dated 2023).

By IC50 is commonly meant the concentration at which inhibition is half-maximal.

Like-named read-outs stand apart in the source and are kept apart here. A value given as a limit tells only on which side of the number the result lay.

The target in the experiment is recombinant 15-PGDH (Homo sapiens (Human), UniProt P15428). The experiment in a line: Enzyme inhibition of recombinant 15-PGDH, in vitro assay. Type of experiment: biochemical.
[1] abbreviates: recombinant human 15-PGDH, read-out: Enzyme inhibition (IC50).

Chain of recombinant 15-PGDH (P15428 whole entry): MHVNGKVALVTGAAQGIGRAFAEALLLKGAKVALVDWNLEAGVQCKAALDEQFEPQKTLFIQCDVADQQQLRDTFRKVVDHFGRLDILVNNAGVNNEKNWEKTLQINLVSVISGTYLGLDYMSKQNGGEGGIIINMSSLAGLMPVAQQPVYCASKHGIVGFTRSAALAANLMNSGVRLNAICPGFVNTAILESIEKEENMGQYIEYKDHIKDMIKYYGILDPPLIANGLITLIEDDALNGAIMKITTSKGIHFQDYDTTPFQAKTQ

For `CCCCSc1cc2nc(-c3ccc(OC)cc3)cc(C(F)(F)F)n2n1` [2a, 2-(butylthio)-5-(4-methoxyphenyl)-7-(trifluoromethyl)pyrazolo[1,5-a]pyrimidine], the 50% inhibitory concentration (IC50) under setting [1] is > 2500 nM.

`CCCCSc1ccc2nc(-c3ccccc3)c(-c3ccccc3)nc2c1` [2b]: the IC50 under setting [1] was > 2500 nM. On the same count and under the same terms, with `CCCCS(=O)(=O)c1ccc2nc(-c3ccccc3)c(-c3ccccc3)nc2c1` [4b] the figure was > 2500 nM. The same measure, in the same setting: the same measure for `CCN(CC)C(=O)c1cc2nc(-c3ccc(OC)cc3)cc(C(F)(F)F)n2n1` [8a]: 100 nM; for `COc1ccc(-c2cc(C(F)(F)F)n3nc(C(=O)N4CCCC4)cc3n2)cc1` [9a]: > 2500 nM. Same read-out and setting: the same measure for `COc1ccc(-c2cc(C(F)(F)F)n3nc(C(=O)N4CCOCC4)cc3n2)cc1` [10a]: 100 to 500 nM; for `COc1ccc(-c2cc(C(F)(F)F)n3nc(C(=O)N4CCCCCC4)cc3n2)cc1` [11a]: 18.9 nM. For the compound `COc1ccc(-c2cc(C(F)(F)F)n3nc(C(=O)N4CCC(=O)CC4)cc3n2)cc1` [13a], the 50% inhibitory concentration (IC50) was 500 to 2500 nM.

With `COc1ccc(-c2cc(C(F)(F)F)n3nc(C(=O)N4CCC(NC(=O)OC(C)(C)C)CC4)cc3n2)cc1` [14a], the IC50 under setting [1] lay within 100 to 500 nM.

With `COc1ccc(-c2cc(C(F)(F)F)n3nc(C(=O)N4CCC(F)CC4)cc3n2)cc1` [15a], under setting [1], the IC50 came out at 42 nM. The same measure, in the same setting: the same measure for `O=C(NCc1ccccc1)c1ccc2nc(-c3ccccc3)c(-c3ccccc3)nc2c1` [15b]: > 2500 nM; for `COc1ccc(-c2cc(C(F)(F)F)n3nc(C(=O)N4CCC(CO)CC4)cc3n2)cc1` [16a]: < 100 nM. On the same count and under the same terms, the same measure for `COC(=O)CNC(=O)c1ccc2nc(-c3ccccc3)c(-c3ccccc3)nc2c1` [16b]: > 2500 nM. On the same count and under the same terms, the same measure for `COc1ccc(-c2cc(C(F)(F)F)n3nc(C(=O)N4CCCCC4CO)cc3n2)cc1` (stereo not drawn) [17a]: < 100 nM; for `O=C(NCCO)c1ccc2nc(-c3ccccc3)c(-c3ccccc3)nc2c1` [17b]: > 2500 nM; for `COc1ccc(-c2cc(C(F)(F)F)n3nc(C(=O)N4CCC(C)CC4)cc3n2)cc1` [18a]: 30.6 nM. On to `COc1ccc(-c2cc(C(F)(F)F)n3nc(C(=O)N4CCCC(C)C4)cc3n2)cc1` (stereo not drawn) [19a], for which, under setting [1], the IC50 was determined as 14.6 nM. `C=CCNC(=O)c1ccc2nc(-c3ccccc3)c(-c3ccccc3)nc2c1` [19b]: the concentration for half-maximal inhibition (IC50) under setting [1] was > 2500 nM. For `COc1ccc(-c2cc(C(F)(F)F)n3nc(C(=O)N4CCCCC4C)cc3n2)cc1` (stereo not drawn) [20a], under setting [1], the IC50 was determined as 33 nM. The same measure, in the same setting: with `COc1ccc(-c2cc(C(F)(F)F)n3nc(C(=O)N4CCC(OC)CC4)cc3n2)cc1` [21a] the figure was 100 to 500 nM; with `O=C(O)c1ccc2nc(-c3ccccc3)c(-c3ccccc3)nc2c1` [21b], > 2500 nM; with `COc1ccc(-c2cc(-c3ccncc3)n3nc(C(=O)N4CCCCC4)cc3n2)cc1` [22a], ~100 nM. Same read-out and setting: with `COc1ccc(-c2cc(-c3cccnc3)n3nc(C(=O)N4CCCCC4)cc3n2)cc1` [23a] the figure was ~100 nM; with `COc1ccc(-c2cc(-c3ccccn3)n3nc(C(=O)N4CCCCC4)cc3n2)cc1` [24a], 20 to 100 nM. On to `COc1ccc(-c2cc(-c3ccnc(Cl)c3)n3nc(C(=O)N4CCCCC4)cc3n2)cc1` [25a], for which, under setting [1], the 50% inhibitory concentration (IC50) was > 100 nM. On the same count and under the same terms, with `COc1ccc(-c2cc(-c3ccncc3Cl)n3nc(C(=O)N4CCCCC4)cc3n2)cc1` [26a] the figure was ~500 nM.

`O=C(c1ccc2nc(-c3ccccc3)c(-c3ccccc3)nc2c1)N1CCCCC1CO` (stereo not drawn) [26b]: the IC50 under setting [1] is 100 to 500 nM. Same read-out and setting: with `COc1ccc(-c2cc(-c3ccc(F)nc3)n3nc(C(=O)N4CCCCC4)cc3n2)cc1` [27a] the figure was > 500 nM; with `COc1ccc(-c2cc(-c3cncnc3)n3nc(C(=O)N4CCCCC4)cc3n2)cc1` [28a], 100 to 500 nM; with `COc1ccc(-c2cc(-c3cnn(C)c3)n3nc(C(=O)N4CCCCC4)cc3n2)cc1` [29a], 20 to 100 nM. In the case of `CC1CCCCN1C(=O)c1ccc2nc(-c3ccccc3)c(-c3ccccc3)nc2c1` (stereo not drawn) [29b], the IC50 under setting [1] was in the range of 100 to 500 nM. On the same count and under the same terms, the same measure for `COc1ccc(-c2cc(-c3ccnc(F)c3)n3nc(C(=O)N4CCCCC4)cc3n2)cc1` [30a]: 20 to 100 nM.

`CNc1cc(-c2ccc(OC)cc2)nc2cc(C(=O)N3CCCCC3)nn12` [31a]: under setting [1], the 50% inhibitory concentration (IC50) lay in the range of 20 to 100 nM. Still for that read-out and setting: the same measure for `COc1ccc(-c2cc(N(C)C)n3nc(C(=O)N4CCCCC4)cc3n2)cc1` [32a]: 33.4 nM; for `O=C(c1ccc2nc(-c3ccccc3)[nH]c2c1)N1CCCCC1` [32b]: 100 to 500 nM. Regarding `COc1ccc(-c2cc(OC)n3nc(C(=O)N4CCCCC4)cc3n2)cc1` [33a], under setting [1], the half-maximal inhibitory concentration (IC50) fell in the range of 20 to 100 nM. Still for that read-out and setting: with `O=C(c1ccc2nc(-c3ccccc3)c(-c3cccnc3)nc2c1)N1CCCCC1` [33b] the figure was 20 nM. `COc1ccc(-c2cc(-c3ccccc3)n3nc(C(=O)N4CCCCC4)cc3n2)cc1` [34a]: the concentration for half-maximal inhibition (IC50) under setting [1] was > 500 nM. On the same count and under the same terms, the same measure for `O=C(c1ccc2nc(-c3ccccc3)c(-c3ccncc3)nc2c1)N1CCCCC1` [34b]: 20 nM. Same read-out and setting: with `COc1ccc(-c2cc(C)n3nc(C(=O)N4CCCCC4)cc3n2)cc1` [35a] the figure was 100 nM. The same measure, in the same setting: with `O=C(c1ccc2nc(-c3ccccc3)c(-c3ccc(F)nc3)nc2c1)N1CCCCC1` [35b] the figure was 20 to 100 nM; with `O=C(c1cc2nc(-c3ccc(F)cc3)cc(C(F)(F)F)n2n1)N1CCCCC1` [36a], 30.7 nM; with `O=C(c1ccc2nc(-c3ccccc3)c(-c3cncnc3)nc2c1)N1CCCCC1` [36b], 20 to 100 nM. Turning to `O=C(c1cc2nc(-c3cncnc3)cc(C(F)(F)F)n2n1)N1CCCCC1` [37a], under setting [1], the IC50 is > 2500 nM.

As to `Cn1cc(-c2nc3cc(C(=O)N4CCCCC4)ccc3nc2-c2ccccc2)cn1` [37b], the concentration for half-maximal inhibition (IC50) under setting [1] fell in the range of 20 to 100 nM.

On to `Cn1cc(-c2cc(C(F)(F)F)n3nc(C(=O)N4CCCCC4)cc3n2)cn1` [38a], for which, under setting [1], the IC50 was > 2500 nM.

In the case of `Cc1cc(-c2nc3cc(C(=O)N4CCCCC4)ccc3nc2-c2ccccc2)ccn1` [38b], the 50% inhibitory concentration (IC50) under setting [1] worked out at 20 nM.

Consider `O=C(c1cc2nc(N3CCCCC3)cc(C(F)(F)F)n2n1)N1CCCCC1` [39a], for which the concentration for half-maximal inhibition (IC50) under setting [1] is 660 nM.

`Cc1ccc(-c2cc(C(F)(F)F)n3nc(C(=O)N4CCCCC4)cc3n2)cc1` [40a]: the half-maximal inhibitory concentration (IC50) under setting [1] was 395 nM. The same measure, in the same setting: the same measure for `O=C(c1cc2ncc(-c3ccccc3)cn2n1)N1CCCCC1` [41a]: 768 nM. For the compound `O=C(c1ccc2ncc(-c3cccc(F)c3)nc2c1)N1CCCCC1` [41b], the IC50 under setting [1] was 4 to 20 nM. Take `O=C(c1cc2nc(-c3cccs3)cc(C(F)(F)F)n2n1)N1CCCCC1` [42a]: under setting [1], the half-maximal inhibitory concentration (IC50) is > 2500 nM. On the same count and under the same terms, with `O=C(c1ccc2ncc(-c3ccc(F)cc3)nc2c1)N1CCCCC1` [42b] the figure was 4 to 20 nM; with `O=C(c1cc2nc(-c3ccccc3C(F)(F)F)cc(C(F)(F)F)n2n1)N1CCCCC1` [43a], > 2500 nM. The same measure, in the same setting: the same measure for `COc1ccc(-c2cc(N3CCCCC3)n3nc(C(=O)N4CCCCC4)cc3n2)cc1` [44a]: 500 nM; for `O=C(c1cc2nc(-c3nccs3)cc(C(F)(F)F)n2n1)N1CCCCC1` [45a]: 14 nM. Still for that read-out and setting: the same measure for `O=C(c1ccc2ncc(-c3ccc(F)cc3F)nc2c1)N1CCCCC1` [45b]: 4 nM. Take `O=C(c1cc2nc(-c3ccc(C(F)(F)F)cc3)cc(C(F)(F)F)n2n1)N1CCCCC1` [47a]: the IC50 under setting [1] was > 2500 nM. The same measure, in the same setting: with `O=C(c1ccc2ncc(-c3cc(F)cc(F)c3)nc2c1)N1CCCCC1` [47b] the figure was 16 nM; with `CCCC[S+]([O-])c1cc2nc(-c3nccs3)cc(C(F)(F)F)n2n1` (stereo not drawn) [48a], 20 to 100 nM.
